Laboratory results published in patent publication US20060040870A1, “Enhancement of apoptosis by caspase-9 inhibitors” (priority 2004, published 2006).
The star is where a group is joined. Cbz = O=C(OCc1ccccc1)*; CH2F = FC*

Experiments:
leukemia/lymphoma cells = assay: Pro-apoptotic activity of caspase inhibitor sequences (Table 2); type: cell-based; set-up: key: “−” is no activity; ++++ is maximum activity
Description: Caspases are constitutively express in cells, and are usually in their pro-form. In response to an incident, such as irradiation or chemotherapy, the pro-form of the caspase is converted into the activated state. Certain compounds are known that can inhibit caspases. For example, the pan-caspase (PCi) VAD can block all caspases. […] For example, C2i inhibits caspase-2. This particular inhibitor is very dose dependent.

[1] = test system: caspase-9 deficient BLIN-4L; assay: Apoptotic sensitivity of BLIN-4L made deficient in caspase-9 by siRNA, Annexin V; details: Annexin V+ events minus DMSO
CD19+ B-cell precursors = assay: Annexin V staining of sorted cord blood-derived CD19+ B-cell precursors removed from MS-5 stroma; type: cell-based, human; details: cultured 18 hours, DMSO control 46.5 ± 1.4, Time 0 1.5
Experimental: Normal B-lineage cells. CD19+ B-lineage cells were derived from CD34+ human cord blood stem cells plated on the murine stromal cell line MS-5 (Itoh Exp Hematol. 1989;17:145-153). MS-5 stromal cells were kindly provided by Dr. Paul Kincade (University of Oklahoma Medical Research Foundation), following permission from Professor K. John Mori (Niigata University, Japan). FACS-purified CD34+/CD38+/lineage—cord blood hematopoietic stem cells were plated onto confluent, non-irradiated MS-5 stromal cells in 96-well flat-bottom plates (200 cells/well) containing Minimal Essential Medium supplemented with 10% FBS. Stem cell factor and G-CSF were added at 10 ng/ml (twice weekly) to enhance the emergence of CD19+ B-lineage cells (Nishihara Eur J Immunol. 1998;28:855-864; Ohkawara Leukemia. 1998;12:764-771). […] Wells were then pooled, stained with PE-conjugated anti-CD 19 + propidium iodide (PI), and sorted on a FACSVantage (BD Immunocytometry Systems, San Jose, Calif.). Cord blood CD34+/CD38+/lineage—cells were provided by Valerie McCullar and Dr. Jeff Miller of the University of Minnesota Cancer Center in accordance with the University of Minnesota Institutional Review Board on Human Subjects.
Flow cytometry. Quantitation of apoptotic events was conducted using a FACS Calibur (BD Immunocytometry Systems). […]

CD33+ myeloid cells = assay: Annexin V staining of sorted cord blood-derived CD33+ myeloid cells removed from MS-5 stroma; type: cell-based, human; details: cultured 18 hours, DMSO control 27.9 ± 3.9, Time 0 <10
BLIN-3 cells [2] = assay: Apoptosis by Annexin V staining and flow cytometry, BLIN-3; type: cell-based, human; details: BLIN-3 removed from adherent fibroblasts, 50 μM
Experimental: (§1) Flow cytometry. Quantitation of apoptotic events was conducted using a FACS Calibur (BD Immunocytometry Systems). All analyses were conducted on cells with lymphoid light scatter characteristics (i.e., low to medium forward scatter and low 90° side scatter).
(§2) iii. Annexin V. FITC-labeled Annexin V (BD Pharmingen, San Diego, Calif.) was used to detect external phosphatidylserine residues appearing on the external surface of early apoptotic cells (Koopman Blood. 1994;84:1415-1420). Cells were stained according to the manufacturers recommendations.
(§3) General experimental strategy. BLIN cell lines were removed from fibroblast monolayers, washed once and resuspended to 7.5×10^5/ml in X-VIVO 10. Two hundred μL of resuspended cells were added to 96-well flat-bottom microtiter plates (ISC Bioexpress, Kaysville, Vt.), followed by 0.5-1.0 μL of caspase inhibitors in DMSO. An identical volume of DMSO alone was added to separate wells as a vehicle control. This final DMSO concentration of 0.25-0.5% vol/vol had no adverse affect on any of the BLIN cell lines. At the indicated times the entire content of individual wells was harvested and stained in the fluorescent protocols described above.
The inventors carried out experiments to test the influence of specific amino acid substitutions on the proapoptotic activity Z-LEHD-fmk. Cells were cultured for 24 hours with various μM concentrations of Z-LEDH-fmk or single amino acid substitution of the parent peptide. All values in the following Table 3 represent the percentage of total Annexin V+ cells (PI+ and PI−) minus the percentage present in culture with DMSO alone (BLIN-2=3%; BLIN-3+7%; BLIN4L=5%).

BLIN-3 cells [3] = assay: Loss of mitochondrial transmembrane potential (TMRE) and YO-PRO permeability in BLIN-3; type: cell-based, human; details: BLIN-3 removed from adherent fibroblasts, 50 μM, compared to DMSO
Experimental: Numbers in the histograms indicate the percentage of PI^- cells that underwent a loss of Δψm. Numbers in the contour plots indicate the percentage of Annexin V^+/PI^- cells. […] Numbers in the contour plots indicate the percentage of YO^- PRO^+/PI^- cells. Numbers in the histograms indicate the percentage of PI^- cells that underwent a loss of Δψm. Flow cytometry. Quantitation of apoptotic events was conducted using a FACS Calibur (BD Immunocytometry Systems). All analyses were conducted on cells with lymphoid light scatter characteristics (i.e., low to medium forward scatter and low 90° side scatter). i. Mitochondrial transmembrane potential (Δψm). The cationic lipophilic fluorescent dye tetramethylrhodamine, ethyl ester, perchlorate (TMRE) was purchased from Molecular Probes, Inc. (Eugene, Oreg.). TMRE has a high degree of membrane permeability and accumulates into mitochondria in accord with the Nernstian equation (Farkas Biophys J. 1989;56:1053-1069). Cells were washed once and re-suspended to 0.5-1.0×10^6/ml in X-VIVO 10. TMRE was added to a final concentration of 50 nM and the cells were incubated in the dark at 37° C. for 15 minutes. […] ii. YO-[…]. The green fluorescent DNA intercalant dye YO-PRO-1 (Idziorek J Immunol Methods. 1995;185:249-258) was purchased from Molecular Probes as the Vybrant Apoptosis Assay Kit #4. […]

[4] = test system: PARP (caspase-3/caspase-7 substrate); assay: Western blotting of PARP cleavage in BLIN-3 and BLIN-4L; type: cell-based, human; details: overnight incubation of BLIN-3 and BLIN-4L cells, 50 μM
Experimental: Western blotting. This method was conducted essentially as previously described.^20 The antibodies used were: rabbit anti-caspase-2 (catalog # sc-625, Santa Cruz Biotechnology Inc., Santa Cruz, Calif.), rabbit anti-caspase-3 (catalog # 9661, Upstate Cell Signaling Solutions, Waltham, Mass.), rabbit anti-caspase-6 (catalog # 9761, Upstate), rabbit anti-caspase-9 (catalog # 9502, Upstate), mouse anti-PARP (catalog # 556494, Pharmingen), and rabbit anti-Bid (catalog # AF846, R&D Systems). The antibodies to caspase-2 and caspase-9 were generated to the procaspase isoforms, whereas the antibodies to caspase-3 and caspase-6 were generated to cleavage products.
As expected, inclusion of 50 μM PCi had no effect. The degree of PARP cleavage in the presence of C9i (greater in BLIN-3 than BLIN-4L) correlated with the percentage of Annexin V+ cells (FIG. 3).

BLIN cell lines = assay: Enhancement of apoptosis in BLIN cell lines (flow cytometry); type: cell-based, human; details: BLIN cell lines
Experimental: as §1
i. Mitochondrial transmembrane potential (Δψm). The cationic lipophilic fluorescent dye tetramethylrhodamine, ethyl ester, perchlorate (TMRE) was purchased from Molecular Probes, Inc. (Eugene, Oreg.). TMRE has a high degree of membrane permeability and accumulates into mitochondria in accord with the Nernstian equation (Farkas Biophys J. 1989;56:1053-1069). Cells were washed once and re-suspended to 0.5-1.0×10^6/ml in X-VIVO 10. TMRE was added to a final concentration of 50 nM and the cells were incubated in the dark at 37° C. for 15 minutes. Cells were then washed 2× in PBS, resuspended in PBS containing 2 μg/ml of propidium iodide (PI), and immediately analyzed. The protonophore […] (50 μM, CCCP, Sigma) was used as a positive control to effect loss of Δψm in 100% of cells.
ii. YO-PRO-1. The green fluorescent DNA intercalant dye YO-PRO-1 (Idziorek J Immunol Methods. 1995;185:249-258) was purchased from Molecular Probes as the Vybrant Apoptosis Assay Kit #4. Dual staining with YO-PRO and PI allows for the detection of early apoptotic cells (YO-PRO+/PI−) that have undergone initial changes in permeability to small molecules. Cells were stained according to the manufacturers recommendations.
as §2, §3

| Molecule | Pro-apoptotic Activity (after 24 hours) (leukemia/lymphoma cells) | also measured |
| --- | --- | --- |
| Z-DEVD-fmk [C3i, reference compound] | − |  |
| CN[C@@H]1C[C@H]2O[C@@](C)([C@@H]1OC)n1c3ccccc3c3c4c(c5c6ccccc6n2c5c31)C(=O)NC4 [staurosporine] |  | apoptotic response of caspase-9 deficient BLIN-4L compared with control siRNA treated cells [1]: significantly more sensitive |
| Cbz-VDVAD-CH2F [C2i, reference compound] | − |  |
| LEHD [C91/ΔFMK] | − |  |
| LEAD [C9i/H > A] | − |  |
| WEHD (printed: Trp-Glu-His-Asp) [C9i/L > W, variant of Z-LEHD-fmk, Trp-Glu-His-Asp] | ++++ |  |
| Z-VAD-fmk [PCi, reference compound] | − | percentage of total Annexin V+ cells (PI+ and PI−), mean ± SD (CD19+ B-cell precursors): 39.5 ± 1.8 %; percentage of total Annexin V+ cells (PI+ and PI−), mean ± SD (CD33+ myeloid cells): 18.0 ± 3.9 %; appearance of Annexin V+ cells (BLIN-3 cells [2]): completely blocked; loss of Δψm (TMRE) (BLIN-3 cells [3]): did not prevent loss of Δψm; cleavage of the caspase-3/caspase-7 substrate PARP [4]: had no effect; enhancement of apoptosis (BLIN cell lines): did not enhance apoptosis |
| Cbz-VEID-CH2F [C6i, reference compound] | − |  |
| LEED (printed: Leu-Glu-Glu-Asp) [C9i/H > E, variant of Z-LEHD-fmk, Leu-Glu-Glu-Asp] | − |  |
| COc1cc([C@@H]2c3cc4c(cc3[C@@H](O[C@@H]3O[C@@H]5CO[C@@H](C)O[C@H]5[C@H](O)[C@H]3O)[C@H]3COC(=O)[C@H]23)OCO4)cc(OC)c1O [etoposide] |  | apoptotic response of caspase-9 deficient BLIN-4L compared with control siRNA treated cells [1]: no difference |
